{"source": "patent US20160045463A1", "about": "“USE OF METALLOPROTEASE INHIBITORS IN THE TREATMENT OF POLYCYSTIC LIVER DISEASES” (UNIVERSIDAD DE SALAMANCA, priority 2012, published 2016)", "key": {"[1]": {"settings": "0.2856 mg/kg/day; patients with colorectal cancer; cited from earlier work"}, "[2]": {"system": "normal human cholangiocytes", "test": "Metalloproteolytic activity of culture supernatants, ES001 fluorogenic peptide cleavage", "type": "cell-based", "settings": "normal cholangiocytes; 13-cis-retinoic acid 10 μM/ml or Marimastat 200 μM/ml; p<0.01; FIG. 21", "protocol": "(§1) Metalloproteolytic or metalloprotease activity was measured in supernatants of cultures of normal human cholangiocytes and polycystic human cholangiocytes by an assay based on the cleavage of the ES001 fluorogenic synthetic peptide (R&D Systems Minneapolis, Minn., USA) that emits fluorescence proportional to metalloproteolytic activity. The substrate Mca-Pro-Leu-Gly-Leu-Dpa-Ala-Arg-NH2 [Mca: (7-Methoxycoumarin-4-yl)acetyl, Dpa: N-3-(2,4-Dinitrophenyl)-L-2,3-diaminopropionyl] (Knight C G, et al. FEBS Letters 1992; 296:263) is lysed between glycine and leucine by the action of the MMPs, especially MMP-1 (collagenase 1), MMP-2 (gelatinase A), MMP-7 (matrilysin), MMP-8 (collagenase 2), MMP-9 (gelatinase B), MMP-12 (macrophage elastase), MMP-13 (collagenase 3), MMP-14 (MT1-MMP), MMP-15 (MT2-MMP) and MMP-16 (MT3-MMP).\n(§2) The basal metalloproteolytic activity of normal human cholangiocyte and polycystic human cholangiocytes cultures was determined by trypsinising the contents of 250 ml flasks and counting the number of cells in an inverted optical microscope using a Neubauer camera and a ½ dilution of the cell solution with trypan blue (Sigma). Next, 300,000 cells were seeded in each well of a 6-well plate and incubated with enriched DMEM/F-12 medium for 24 hours. After this time, the cells were washed with PBS and the culture medium changed for 2 ml of quiescent medium (DMEM/F-12, 1% FBS and 1% P/S) and incubated for 6 hours at 37° C./5% CO2. The supernatant was collected from each well and centrifuged at 4° C. for 10 minutes at 1,500 rpm to remove the dead cells present in the supernatant. The supernatant was concentrated 50 times using a 15 kDa (Millipore) Amicon Ultra concentrator. Next the concentrated supernatant was incubated for 2 hours at 37° C. with the ES001 fluorogenic peptide at a final concentration of 10 μM. Also, GM6001 (a global MMP inhibitor) and aprotinin (a global inhibitor of serine proteases) (both from Sigma-Aldrich) were used as controls of the specificity of the analysis of MMP activity in the assay. Recombinant MMP-10 (kindly provided by Dr. José Antonio Rodriguez Garcia, Laboratorio de Ateroesclerosis e Inflamación del CIMA, Universidad de Navarra) was used as a positive control and DMEM/F-12 medium without serum was used as the negative control. The fluorescence determination was kinetically measured in a Spectra MAX GeminiXS (Molecular Devices Sunnyvale, Calif., USA) spectrophotometer at excitation-emission wavelengths of 320-405 nm. The fluorescence intensity emitted by the culture medium was extracted from the metalloproteolytic activity values. The metalloproteolytic activity was calculated from the tangent to the curve of the fluorescence values using at least six different points over time for each type of cell and condition.\n(§3) To analyse the effect of various stimuli on the metalloproteolytic activity of normal and polycystic human cholangiocytes cultures, a protocol similar to that described before in Example 2 was followed, but in this case the incubation of the cells was with quiescent medium (i.e. DMEM/F12, […]) in the presence of the corresponding stimulus (Table 3). Next, the same procedure as described for the analysis of basal metalloproteolytic activity was followed as described in Example 2.\n(§4) Taking into account that: i) basal activity of polycystic human cholangiocytes in culture is greater than that of normal human cholangiocytes and ii) that IL-6 and IL-8 increased the metalloproteolytic activity of normal and polycystic human cholangiocytes, the role of these two cytokines on metalloproteolytic hyperactivity of polycystic human cholangiocytes using antibodies against the receptors of IL-6 (IL6R) and/or IL-8 (CXCR1) was investigated. […]"}, "[3]": {"system": "polycystic human cholangiocytes", "test": "Metalloproteolytic activity of culture supernatants, ES001 fluorogenic peptide cleavage", "type": "cell-based", "settings": "polycystic cholangiocytes; 13-cis-retinoic acid 10 μM/ml or Marimastat 200 μM/ml; p<0.01; FIG. 21", "protocol": "as §1, §2, §3, §4"}}}
{"compound": "CNC(=O)[C@@H](NC(=O)[C@H](CC(C)C)[C@H](O)C(=O)NO)C(C)(C)C", "note": "[Marimastat, N-[2,2-dimethyl-1-(methylcarbamoyl)propyl]-2-[hydroxy-(hydroxycarbamoyl)methyl]-4-methyl-pentanamide]", "values": [{"measurement": "toxicity at dose used in clinical trials", "setting": "[1]", "result": "does not cause toxicity"}, {"measurement": "basal metalloproteolytic activity in presence of inhibitor", "setting": "[2]", "result": "inhibited"}, {"measurement": "basal metalloproteolytic activity in presence of inhibitor", "setting": "[3]", "result": "inhibited"}]}
